pIC50: −log10 of the molar value.
Experiments:
Assay in all cases: cells
NCI-H2126 = format: functional, cell-based, Homo sapiens;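 also: growth inhibition of the cancer cell line, determined with a cell viability readout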
Description: SANGER: Inhibition of human NCI-H2126 cell growth in a cell viability assay.

MZ7-mel = format: functional, cell-based, Homo sapiens;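 also: growth inhibition of human MZ7-mel cells, measured by a cell viability assay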
Description: SANGER: Inhibition of human MZ7-mel cell growth in a cell viability assay.

IST-SL1 = format: functional, cell-based, Homo sapiens;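 also: growth inhibition of human IST-SL1 cells, read out with a cell viability assay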
Description: SANGER: Inhibition of human IST-SL1 cell growth in a cell viability assay.

KP-N-YS = format: functional, cell-based, Homo sapiens;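 also: cell viability assay measuring inhibition of cell line growth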
Description: SANGER: Inhibition of human KP-N-YS cell growth in a cell viability assay.

ML-2 = format: functional, cell-based, Homo sapiens;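 also: growth inhibition of ML-2 cells, measured with a cell viability readout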
Description: SANGER: Inhibition of human ML-2 cell growth in a cell viability assay.

TGBC1TKB = format: functional, cell-based, Homo sapiens;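 also: growth inhibition of TGBC1TKB cells, read out by a cell viability assay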
Description: SANGER: Inhibition of human TGBC1TKB cell growth in a cell viability assay.

MFH-ino = format: functional, cell-based, Homo sapiens;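 also: growth inhibition of human MFH-ino cells, read out by a cell viability assay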
Description: SANGER: Inhibition of human MFH-ino cell growth in a cell viability assay.

Calu-6 = format: functional, cell-based, Homo sapiens;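 also: growth of human Calu-6 cells, read out by a cell viability assay, IC50 marking inhibition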
Description: SANGER: Inhibition of human Calu-6 cell growth in a cell viability assay.

KS-1 = format: functional, cell-based, Homo sapiens;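 also: growth inhibition of KS-1 cells, read out with a cell viability assay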
Description: SANGER: Inhibition of human KS-1 cell growth in a cell viability assay.

CAS-1 = format: functional, cell-based, Homo sapiens;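 also: growth inhibition of CAS-1 cells, measured with a cell viability assay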
Description: SANGER: Inhibition of human CAS-1 cell growth in a cell viability assay.

ES7 = format: functional, cell-based, Homo sapiens;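 also: growth inhibition of cultured human ES7 cells, read out as cell viability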
Description: SANGER: Inhibition of human ES7 cell growth in a cell viability assay.

EM-2 = format: functional, cell-based, Homo sapiens;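 also: growth inhibition of EM-2 cells, read out with a cell viability assay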
Description: SANGER: Inhibition of human EM-2 cell growth in a cell viability assay.

Mo = format: functional, cell-based, Homo sapiens
Description: SANGER: Inhibition of human Mo-T cell growth in a cell viability assay.

SF-539 = format: functional, cell-based, Homo sapiens;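 also: Read-out is a cell viability assay, with IC50 reflecting inhibition of cell growth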
Description: SANGER: Inhibition of human SF539 cell growth in a cell viability assay.

NCI-H1395 = format: functional, cell-based, Homo sapiens;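 also: cell viability assay read-out quantifying reduced proliferation of human NCI-H1395 cells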
Description: SANGER: Inhibition of human NCI-H1395 cell growth in a cell viability assay.

NB17 = format: functional, cell-based, Homo sapiens;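 also: growth inhibition of NB17 cells, read out with a cell viability assay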
Description: SANGER: Inhibition of human NB17 cell growth in a cell viability assay.

SF-126 = format: functional, cell-based, Homo sapiens;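 also: growth inhibition of human SF126 cells, read out with a cell viability assay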
Description: SANGER: Inhibition of human SF126 cell growth in a cell viability assay.

NTERA-2-cl-D1 = format: functional, cell-based, Homo sapiens;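 also: inhibition of cell growth, measured with a cell viability assay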
Description: SANGER: Inhibition of human NTERA-S-cl-D1 cell growth in a cell viability assay.

KU812 cell line = format: functional, cell-based, Homo sapiens;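 also: growth inhibition of KU812 cells, read out with a cell viability assay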
Description: SANGER: Inhibition of human KU812 cell growth in a cell viability assay.

GOTO = format: functional, cell-based, Homo sapiens;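 also: growth inhibition of GOTO cells, read out by a cell viability assay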
Description: SANGER: Inhibition of human GOTO cell growth in a cell viability assay.

HCE-4 = format: functional, cell-based, Homo sapiens;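 also: cell viability assay measuring inhibition of growth in the human HCE-4 cell line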
Description: SANGER: Inhibition of human HCE-4 cell growth in a cell viability assay.

P30-OHK = format: functional, cell-based, Homo sapiens;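 also: growth inhibition of the P30-OHK cell line, read out with a cell viability assay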
Description: SANGER: Inhibition of human P30-OHK cell growth in a cell viability assay.

BB49-HNC = format: functional, cell-based, Homo sapiens;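 also: cell viability assay read-out, reported as inhibition of BB49-HNC cell growth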
Description: SANGER: Inhibition of human BB49-HNC cell growth in a cell viability assay.

NCI-H1838 = format: functional, cell-based, Homo sapiens;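 also: growth inhibition of NCI-H1838 cells, determined with a cell viability readout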
Description: SANGER: Inhibition of human NCI-H1838 cell growth in a cell viability assay.

LS-513 = format: functional, cell-based, Homo sapiens
Description: SANGER: Inhibition of human LS-513 cell growth in a cell viability assay.

SNU1 = format: functional, cell-based, Homo sapiens; conditions: Homo sapiens, SNU1;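 also: growth inhibition of human NCI-SNU-1 cells, measured with a cell viability assay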
Description: SANGER: Inhibition of human NCI-SNU-1 cell growth in a cell viability assay.

SW872 = format: functional, cell-based, Homo sapiens;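 also: growth inhibition of SW872 cells, read out by a viability assay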
Description: SANGER: Inhibition of human SW872 cell growth in a cell viability assay.

MPP-89 = format: functional, cell-based, Homo sapiens;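 also: growth inhibition of human MPP-89 cells, read out with a cell viability assay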
Description: SANGER: Inhibition of human MPP-89 cell growth in a cell viability assay.

NCI-H1304 = format: functional, cell-based, Homo sapiens;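 also: growth inhibition of the cancer cell line, measured in a cell viability assay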
Description: SANGER: Inhibition of human NCI-H1304 cell growth in a cell viability assay.

KY821 = format: functional, cell-based, Homo sapiens;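 also: growth inhibition of human KY821 cells, read out by a cell viability assay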
Description: SANGER: Inhibition of human KY821 cell growth in a cell viability assay.

697 = format: functional, cell-based, Homo sapiens
Description: SANGER: Inhibition of human 697 cell growth in a cell viability assay.

8-MG-BA = format: functional, cell-based, Homo sapiens;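 also: growth inhibition of 8-MG-BA cells, read out with a cell viability assay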
Description: SANGER: Inhibition of human 8-MG-BA cell growth in a cell viability assay.

MV4-11 = format: functional, cell-based, Homo sapiens, MV-4-11;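 also: cell viability readout measuring growth inhibition of human MV-4-11 cells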
Description: SANGER: Inhibition of human MV-4-11 cell growth in a cell viability assay.

ONS-76 = format: functional, cell-based, Homo sapiens;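 also: growth inhibition of human ONS-76 cells, read out with a cell viability assay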
Description: SANGER: Inhibition of human ONS-76 cell growth in a cell viability assay.

HDLM-2 = format: functional, cell-based, Homo sapiens;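 also: cell viability assay measuring suppression of HDLM-2 proliferation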
Description: SANGER: Inhibition of human HDLM-2 cell growth in a cell viability assay.

A3-KAW = format: functional, cell-based, Homo sapiens;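 also: growth inhibition of human A3-KAW cells, read out with a cell viability assay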
Description: SANGER: Inhibition of human A3-KAW cell growth in a cell viability assay.

LAN-6 = format: functional, cell-based, Homo sapiens;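 also: growth inhibition of LAN-6 cells, determined with a cell viability assay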
Description: SANGER: Inhibition of human LAN-6 cell growth in a cell viability assay.

LB2241-RCC = format: functional, cell-based, Homo sapiens;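 also: cell viability assay measuring how strongly the cultured human renal carcinoma line is prevented from growing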
Description: SANGER: Inhibition of human LB2241-RCC cell growth in a cell viability assay.

L-428 = format: functional, cell-based, Homo sapiens
Description: SANGER: Inhibition of human L-428 cell growth in a cell viability assay.

NB69 = format: functional, cell-based, Homo sapiens;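 also: growth inhibition of NB69 cells, determined by a cell viability assay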
Description: SANGER: Inhibition of human NB69 cell growth in a cell viability assay.

DB = format: functional, cell-based, Homo sapiens
Description: SANGER: Inhibition of human DB cell growth in a cell viability assay.

MZ2-MEL = format: functional, cell-based, Homo sapiens;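 also: growth inhibition of MZ2-MEL cells read out with a cell viability assay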
Description: SANGER: Inhibition of human MZ2-MEL cell growth in a cell viability assay.

NCI-H720 = format: functional, cell-based, Homo sapiens;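 also: growth inhibition of human NCI-H720 cells determined by a cell viability assay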
Description: SANGER: Inhibition of human NCI-H720 cell growth in a cell viability assay.

HCC 2998 = format: functional, cell-based, Homo sapiens;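 also: growth inhibition of human HCC2998 cells, measured with a cell viability read-out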
Description: SANGER: Inhibition of human HCC2998 cell growth in a cell viability assay.

NOS-1 = format: functional, cell-based, Homo sapiens;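 also: growth inhibition of the human NOS-1 cell line, read out with a cell viability assay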
Description: SANGER: Inhibition of human NOS-1 cell growth in a cell viability assay.

CGTH-W-1 = format: functional, cell-based, Homo sapiens;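 also: growth inhibition of human CGTH-W-1 cells measured by cell viability assay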
Description: SANGER: Inhibition of human CGTH-W-1 cell growth in a cell viability assay.

K562 = format: functional, cell-based, Homo sapiens
Description: SANGER: Inhibition of human K-562 cell growth in a cell viability assay.

OCUB-M = format: functional, cell-based, Homo sapiens;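 also: growth inhibition of the cancer cell line, read out through a cell viability assay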
Description: SANGER: Inhibition of human OCUB-M cell growth in a cell viability assay.

A253 cell line = format: functional, cell-based, Homo sapiens; conditions: Homo sapiens, A253;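 also: growth inhibition of A253 cells, read out with a cell viability assay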
Description: SANGER: Inhibition of human A253 cell growth in a cell viability assay.

Measured: pIC50

Nc1cccc2c1CN(C1CCC(=O)NC1=O)C2=O (stereo unspecified) [LENALIDOMIDE]
< 5.30: NCI-H2126; Homo sapiens, NCI-H2126 | MZ7-mel; Homo sapiens, MZ7-mel | IST-SL1; Homo sapiens, IST-SL1 | KP-N-YS; Homo sapiens, KP-N-YS | ML-2; Homo sapiens, ML-2 | TGBC1TKB; Homo sapiens, TGBC1TKB | MFH-ino; Homo sapiens, MFH-ino | Calu-6; Homo sapiens, Calu-6 | KS-1; Homo sapiens, KS-1 | CAS-1; Homo sapiens, CAS-1 | ES7; Homo sapiens, ES7 | EM-2; Homo sapiens, EM-2 | Mo; Homo sapiens, Mo | SF-539; Homo sapiens, SF-539 | NCI-H1395; Homo sapiens, NCI-H1395 | NB17; Homo sapiens, NB17 | SF-126; Homo sapiens, SF-126 | NTERA-2-cl-D1; Homo sapiens, NTERA-2-cl-D1 | KU812 cell line; Homo sapiens, KU812 | GOTO; Homo sapiens, GOTO | HCE-4; Homo sapiens, HCE-4 | P30-OHK; Homo sapiens, P30-OHK | BB49-HNC; Homo sapiens, BB49-HNC | NCI-H1838; Homo sapiens, NCI-H1838 | LS-513; Homo sapiens, LS-513 | SNU1 | SW872; Homo sapiens, SW872 | MPP-89; Homo sapiens, MPP-89 | NCI-H1304; Homo sapiens, NCI-H1304 | KY821; Homo sapiens, KY821 | 697; Homo sapiens | 8-MG-BA; Homo sapiens, 8-MG-BA | MV4-11; Homo sapiens, MV4-11 | ONS-76; Homo sapiens, ONS-76 | HDLM-2; Homo sapiens, HDLM-2 | A3-KAW; Homo sapiens, A3-KAW | LAN-6; Homo sapiens, LAN-6 | LB2241-RCC; Homo sapiens, LB2241-RCC | L-428; Homo sapiens, L-428 | NB69; Homo sapiens, NB69 | DB; Homo sapiens, DB | MZ2-MEL; Homo sapiens, MZ2-MEL | NCI-H720; Homo sapiens, NCI-H720 | HCC 2998; Homo sapiens, HCC 2998 | NOS-1; Homo sapiens, NOS-1 | CGTH-W-1; Homo sapiens, CGTH-W-1 | K562; Homo sapiens, K562 | OCUB-M; Homo sapiens, OCUB-M

Cc1cn(-c2cc(NC(=O)c3ccc(C)c(Nc4nccc(-c5cccnc5)n4)c3)cc(C(F)(F)F)c2)cn1 [NILOTINIB]
8.39: EM-2; Homo sapiens, EM-2
< 5.70: NCI-H2126; Homo sapiens, NCI-H2126 | MZ7-mel; Homo sapiens, MZ7-mel | IST-SL1; Homo sapiens, IST-SL1 | KP-N-YS; Homo sapiens, KP-N-YS | ML-2; Homo sapiens, ML-2 | TGBC1TKB; Homo sapiens, TGBC1TKB | MFH-ino; Homo sapiens, MFH-ino | Calu-6; Homo sapiens, Calu-6 | KS-1; Homo sapiens, KS-1 | CAS-1; Homo sapiens, CAS-1 | ES7; Homo sapiens, ES7 | Mo; Homo sapiens, Mo | SF-539; Homo sapiens, SF-539 | NCI-H1395; Homo sapiens, NCI-H1395 | NB17; Homo sapiens, NB17 | SF-126; Homo sapiens, SF-126 | NTERA-2-cl-D1; Homo sapiens, NTERA-2-cl-D1 | GOTO; Homo sapiens, GOTO | HCE-4; Homo sapiens, HCE-4 | P30-OHK; Homo sapiens, P30-OHK | BB49-HNC; Homo sapiens, BB49-HNC | NCI-H1838; Homo sapiens, NCI-H1838 | LS-513; Homo sapiens, LS-513 | SNU1 | SW872; Homo sapiens, SW872 | MPP-89; Homo sapiens, MPP-89 | NCI-H1304; Homo sapiens, NCI-H1304 | KY821; Homo sapiens, KY821 | 697; Homo sapiens | 8-MG-BA; Homo sapiens, 8-MG-BA | MV4-11; Homo sapiens, MV4-11 | ONS-76; Homo sapiens, ONS-76 | HDLM-2; Homo sapiens, HDLM-2 | A3-KAW; Homo sapiens, A3-KAW | LAN-6; Homo sapiens, LAN-6 | L-428; Homo sapiens, L-428 | NB69; Homo sapiens, NB69 | DB; Homo sapiens, DB | MZ2-MEL; Homo sapiens, MZ2-MEL | NCI-H720; Homo sapiens, NCI-H720 | HCC 2998; Homo sapiens, HCC 2998 | NOS-1; Homo sapiens, NOS-1 | K562; Homo sapiens, K562 | OCUB-M; Homo sapiens, OCUB-M
6.19: CGTH-W-1; Homo sapiens, CGTH-W-1
5.99: LB2241-RCC; Homo sapiens, LB2241-RCC
8.61: KU812 cell line; Homo sapiens, KU812

CCN(CC)CCCCNc1ncc2cc(-c3cc(OC)cc(OC)c3)c(NC(=O)NC(C)(C)C)nc2n1 [PD-173074]
< 5.70: NCI-H2126; Homo sapiens, NCI-H2126 | MZ7-mel; Homo sapiens, MZ7-mel | IST-SL1; Homo sapiens, IST-SL1 | KP-N-YS; Homo sapiens, KP-N-YS | ML-2; Homo sapiens, ML-2 | TGBC1TKB; Homo sapiens, TGBC1TKB | Calu-6; Homo sapiens, Calu-6 | KS-1; Homo sapiens, KS-1 | CAS-1; Homo sapiens, CAS-1 | ES7; Homo sapiens, ES7 | EM-2; Homo sapiens, EM-2 | Mo; Homo sapiens, Mo | SF-539; Homo sapiens, SF-539 | NCI-H1395; Homo sapiens, NCI-H1395 | NB17; Homo sapiens, NB17 | SF-126; Homo sapiens, SF-126 | NTERA-2-cl-D1; Homo sapiens, NTERA-2-cl-D1 | KU812 cell line; Homo sapiens, KU812 | GOTO; Homo sapiens, GOTO | HCE-4; Homo sapiens, HCE-4 | A253 cell line | P30-OHK; Homo sapiens, P30-OHK | BB49-HNC; Homo sapiens, BB49-HNC | NCI-H1838; Homo sapiens, NCI-H1838 | LS-513; Homo sapiens, LS-513 | SNU1 | SW872; Homo sapiens, SW872 | MPP-89; Homo sapiens, MPP-89 | NCI-H1304; Homo sapiens, NCI-H1304 | KY821; Homo sapiens, KY821 | 697; Homo sapiens | 8-MG-BA; Homo sapiens, 8-MG-BA | MV4-11; Homo sapiens, MV4-11 | ONS-76; Homo sapiens, ONS-76 | HDLM-2; Homo sapiens, HDLM-2 | A3-KAW; Homo sapiens, A3-KAW | LAN-6; Homo sapiens, LAN-6 | LB2241-RCC; Homo sapiens, LB2241-RCC | L-428; Homo sapiens, L-428 | NB69; Homo sapiens, NB69 | DB; Homo sapiens, DB | MZ2-MEL; Homo sapiens, MZ2-MEL | NCI-H720; Homo sapiens, NCI-H720 | HCC 2998; Homo sapiens, HCC 2998 | NOS-1; Homo sapiens, NOS-1 | CGTH-W-1; Homo sapiens, CGTH-W-1 | K562; Homo sapiens, K562 | OCUB-M; Homo sapiens, OCUB-M

CS(=O)(=O)c1ccc(C(=O)Nc2ccc(Cl)c(-c3ccccn3)c2)c(Cl)c1 [VISMODEGIB]
5.09: HDLM-2; Homo sapiens, HDLM-2
< 5.00: NCI-H2126; Homo sapiens, NCI-H2126 | MZ7-mel; Homo sapiens, MZ7-mel | IST-SL1; Homo sapiens, IST-SL1 | KP-N-YS; Homo sapiens, KP-N-YS | ML-2; Homo sapiens, ML-2 | TGBC1TKB; Homo sapiens, TGBC1TKB | MFH-ino; Homo sapiens, MFH-ino | Calu-6; Homo sapiens, Calu-6 | KS-1; Homo sapiens, KS-1 | CAS-1; Homo sapiens, CAS-1 | ES7; Homo sapiens, ES7 | EM-2; Homo sapiens, EM-2 | Mo; Homo sapiens, Mo | SF-539; Homo sapiens, SF-539 | NCI-H1395; Homo sapiens, NCI-H1395 | NB17; Homo sapiens, NB17 | SF-126; Homo sapiens, SF-126 | NTERA-2-cl-D1; Homo sapiens, NTERA-2-cl-D1 | GOTO; Homo sapiens, GOTO | HCE-4; Homo sapiens, HCE-4 | P30-OHK; Homo sapiens, P30-OHK | BB49-HNC; Homo sapiens, BB49-HNC | NCI-H1838; Homo sapiens, NCI-H1838 | LS-513; Homo sapiens, LS-513 | SNU1 | SW872; Homo sapiens, SW872 | MPP-89; Homo sapiens, MPP-89 | NCI-H1304; Homo sapiens, NCI-H1304 | 697; Homo sapiens | 8-MG-BA; Homo sapiens, 8-MG-BA | MV4-11; Homo sapiens, MV4-11 | ONS-76; Homo sapiens, ONS-76 | A3-KAW; Homo sapiens, A3-KAW | LAN-6; Homo sapiens, LAN-6 | LB2241-RCC; Homo sapiens, LB2241-RCC | L-428; Homo sapiens, L-428 | NB69; Homo sapiens, NB69 | DB; Homo sapiens, DB | MZ2-MEL; Homo sapiens, MZ2-MEL | HCC 2998; Homo sapiens, HCC 2998 | NOS-1; Homo sapiens, NOS-1 | CGTH-W-1; Homo sapiens, CGTH-W-1 | K562; Homo sapiens, K562 | OCUB-M; Homo sapiens, OCUB-M

CISPLATIN
4.16: NB17; nb17
5.46: MV4-11; mv-4-11
4.64: OCUB-M; ocub-m
3.87: NCI-H720; nci-h720
2.87: MFH-ino; mfh-ino
5.57: P30-OHK; p30-ohk
4.95: LB2241-RCC; lb2241-rcc
4.08: TGBC1TKB; tgbc1tkb
3.29: K562; k562
3.79: ML-2; ml-2 | A3-KAW; a3-kaw
5.01: NCI-H1304; nci-h1304
5.67: DB; db
4.21: LS-513; ls-513
3.09: KP-N-YS; kp-n-ys
4.10: KY821; ky821
5.45: SF-539; sf-539
3.05: Mo; mo
4.79: MPP-89; mpp-89
4.32: BB49-HNC; bb49-hnc
5.73: ES7; es7
4.31: KU812 cell line; ku812
6.07: NTERA-2-cl-D1; ntera-2-cl-d1
4.39: SW872; sw872
4.72: L-428; l-428
4.28: NB69; nb69
5.40: ONS-76; ons-76
3.66: NCI-H2126; nci-h2126
3.57: HCC 2998; hcc 2998
4.92: SF-126; sf-126
4.87: MZ2-MEL; mz2-mel
5.03: HCE-4; hce-4
5.34: CGTH-W-1; cgth-w-1
3.83: NOS-1; nos-1
5.51: GOTO; goto
5.72: 697
4.36: NCI-H1395; nci-h1395
5.18: MZ7-mel; mz7-mel
4.55: KS-1; ks-1
3.59: LAN-6; lan-6
3.93: CAS-1; cas-1
4.12: Calu-6; calu-6
3.84: HDLM-2; hdlm-2
3.55: NCI-H1838; nci-h1838
4.15: IST-SL1; ist-sl1 | EM-2; em-2
5.27: 8-MG-BA; 8-mg-ba

Source: ChEMBL document CHEMBL1201861, “Genomics of Drug Sensitity in Cancer screening data, Wellcome Trust Sanger Institute”
